Data reported in a melting point compilation (Tetko et al.; mined from patent text by program, amines drawn as free bases though some values may be those of a salt).

SMILES	melting point [°C]
O=C(O)c1c(O)c(-c2ccccc2)nc2ccccc12	206
O=c1[nH]c2cc(Cl)ccc2c(O)c1-c1cccc(/C=C/c2ccccc2)c1	320 to 324
COC(=O)C(=CO)c1ccccc1	33.5 to 35.5
Cc1cc(C(=O)N2Cc3ccc(C(=O)C(Cl)(Cl)Cl)n3Cc3ccccc32)ccc1I	163
CCCCCc1ccc(-c2ccc(C3CC(CCCCC)C(=O)O3)cc2)cc1 (centres undefined)	86.2 to 88.4
N#CCCCCn1cnc(NC(N)=NCC(F)(F)F)n1	200 to 201
Nc1ccc(C(=O)N2Cc3ccccc3Cc3cc(Cl)ccc32)cc1	211 to 214
CN=C(NC#N)NCCSCc1ncccc1O	146 to 148
CSCC(O)(Cn1cncn1)c1ccc(Cl)cc1Cl (centres undefined)	117 to 119
CS(=O)(=O)OCCCc1ccc(OCc2coc(/C=C/c3ccccc3)n2)cc1	111 to 112
O=C(/C=C/c1ccc(C(F)(F)F)cc1-c1cccnc1)Nc1cnc2ccccc2c1	196 to 199
COc1ccc2c(c1)C1(CCN(CCCC(=O)c3ccc(F)cc3)C1)CC2O (centres undefined)	163 to 165
O=C(c1ccncc1)N1CCN(Cc2ccc3c(c2)-c2[nH]nc(-c4ccsc4)c2C3)CC1	168 to 170
N#Cc1sc(Cl)nc1Cl	34 to 35
CN(C)C1CCN(c2ccc(-c3[nH]nc4c3C(=O)c3c(NC(=O)NN5CCOCC5)cccc3-4)cc2)CC1	258
CC(O)c1ccc(-c2ccnc(Nc3ccc4c(c3)OCCO4)c2)cc1 (centres undefined)	55.9 to 61.5
CN1C(=O)[C@H](NC(=O)CCc2cccc(Cl)c2)N=C(c2ccccc2)c2ccccc21	157 to 159
OC(c1ccccc1)(c1cc2ccccc2s1)C1CCN(CCc2ccccc2)CC1 (centres undefined)	144 to 146
Clc1ccc2nc3c4ccccc4c4ccccc4c3nc2c1	241 to 242
CCn1nc2c(N)nc3ccccc3c2c1CCc1ccccc1	179 to 181

SMILES	melting point [°C]
CC(C)c1ccc(-c2c(Cl)c(CN3C(=O)CCC3=O)nc3sc4c(c23)CCN(Cc2ccccc2)C4)cc1	201 to 202
O=C1CC(C(=O)OCc2ccccc2)C(=O)C(Cc2ccccc2)N1 (centres undefined)	119 to 120
CC(N)(Cc1c[nH]c2ccccc12)C(=O)NCCc1ccccc1 (centres undefined)	106 to 110
CN1C(=O)NC(=O)C(C=O)C1=O (centres undefined)	197 to 199
N=C(Nc1ccc(CCNCc2ccccc2)cc1)c1cccs1	116 to 118
COC(OC)C1CCC2C3CCC4CC(O)CCC4(C)C3C(=O)CC12C (centres undefined)	136 to 142
Nc1cc(C2COCCO2)ccn1 (centres undefined)	123 to 126
CC(Oc1ccc2nc(NC(=O)NCCN3CCOCC3)sc2c1)c1c(Cl)ccc(F)c1Cl (centres undefined)	110
Cc1ccccc1Cc1nc2cc(Cl)c(S(N)(=O)=O)cc2[nH]1	226 to 230
Cc1cc(-c2nnc3c4ccccc4c(OCc4ncn(C(C)C)n4)nn23)no1	179 to 181
COc1cc(NC(=S)Nc2ccccc2)ccn1	138 to 141
N#CC(C(=O)c1nn(-c2ccccc2)c2c1CSc1ccccc1-2)C(=S)Nc1ccccc1 (centres undefined)	167 to 170
CC(C)c1ccc(C2COc3ccc(Br)cc32)cc1 (centres undefined)	90 to 91
COc1ccc(Oc2c(-c3ccc(S(C)(=O)=O)cc3)cnn(-c3cccc(Cl)c3)c2=O)cc1	182 to 184
Cc1cn(-c2cc(NC(=O)c3ccc(C)c(C#Cc4ccc(NC5CC5)nn4)c3)cc(C(F)(F)F)c2)cn1	226 to 228
O=C1O[C@@H](COc2cnsn2)CN1c1ccc(C2=CCOCC2)c(F)c1	146 to 148
CSC1=Nc2ccccc2C(=O)N(C)C1c1ccccc1 (centres undefined)	130 to 132
C=C(c1c(C#N)nn(-c2c(Cl)cc(C(F)(F)F)cc2Cl)c1N)C(F)(F)F	147 to 148
OC(Cn1cncn1)c1ccc(-c2ccc(Cl)cc2)cc1 (centres undefined)	199
O=[N+]([O-])c1ccc(Oc2ccccc2-c2ccccc2Oc2ccc([N+](=O)[O-])cc2)cc1	158

SMILES	melting point [°C]
O=C(O)c1cccc(Oc2ccc(C(F)(F)F)c(Cl)c2)c1	90 to 91
CC1(C)OC(=O)Nc2c(F)cc(-c3csc(C#N)c3)cc21	250 to 251
COc1ccc(C(C#Cc2ccccc2)Cc2noc(C(F)(F)F)n2)cc1OC1CCCC1 (racemic)	96 to 98
COC(=O)C1CCc2c(oc3cccc(Cl)c23)C1 (centres undefined)	99 to 102
O=C(c1ccc(OCCn2ccnc2)cc1)N1CCOCC1	109 to 111
NC(=O)CON=C(C(=O)O)c1ccco1	143 to 145
O=C(O)c1cccc(-c2ccc(Cl)c3cc(Cc4ccc(F)c(F)c4)sc23)c1	214 to 215
CC(=O)c1ccccc1NC(=O)C(Cl)(Cl)Cl	113
O=C(NNc1ccc(C(F)(F)F)cc1)c1ccccc1F	163 to 165
O=C1Nc2c(F)cccc2C12COc1cc3c(cc12)CCO3 (centres undefined)	> 250
CC(C)(C)OC(=O)N1[C@@H](c2ccccc2)[C@H](C(=O)OC(=O)[C@@H]2OC(C)(C)N(C(=O)OC(C)(C)C)[C@H]2c2ccccc2)OC1(C)C	46
CCN(CC)c1ccc(-c2cnc3[nH]cc(C(=O)C4(C)CCCCC4)c3n2)cc1	211 to 213
Oc1cc2c(nn1)CCCCCCCCCC2	188 to 189
Cc1nc(C#N)sc1-c1ccncc1	169 to 170
Cc1cccc(NC(=O)NC2N=C(c3ccccc3F)c3ccccc3N(Cc3ncccc3C(=O)N3CCCC3)C2=O)c1 (racemic)	153 to 155
CC1(C)CC(=O)c2c(SCc3ccccc3)c[nH]c2C1	220 to 223
CC1=C(c2ccccc2)C(=O)N(C(C)(C)c2ccccc2)CC1	108 to 109
Cc1nc(C)n(-c2cc(C)c3[nH]c(=O)ccc3c2)c1Br	273
COC(=O)c1ccc(C2NCCc3c2[nH]c2ccccc32)cc1 (centres undefined)	179

Now from value to compound:

melting point [°C]	SMILES
115 to 117	CCOC(=O)Cc1sc(Sc2cc3ccccc3c(Cl)n2)nc1C
268 to 269	CCCNC(=O)c1ccc(-c2nc(=O)c3ccccc3s2)nc1
69 to 75	Cc1cc(Sc2ccccc2)ccc1[N+](=O)[O-]
91 to 99	Cc1ccc(S(=O)(=O)OCC(C)C2CCC3C4CC=C5CC(O)CC(O)C5(C)C4CCC23C)cc1 (centres undefined)
> 250	CCN(CC)c1cc(C)c2ncc(C#N)c(O)c2c1
83 to 85	CSCC[C@H](NC(=O)[C@@H](N)CC(C)C)[C@@H](O)c1nccs1
113 to 114	CNC(=C[N+](=O)[O-])NCCSCc1cc2ccc(CN(C)C)cc2o1
156 to 157	CCC(CC)C(=O)C1=C(O)c2cc(OC)c(OC)c(OC)c2C(O)(c2ccc(OC)c(OC)c2)C1C(=O)OC (centres undefined)
140 to 142	CCOC(=O)c1csc(Nc2ccccc2)n1
212 to 214	CCCNC(=O)CCn1cnc2c(N)nc3ccccc3c21
184 to 186	CCCCC(O)Cc1c(O)c2cccnc2n(-c2ccccc2)c1=O (centres undefined)
215	CCOC(=O)C1=C(C)NC(C)=C(C(=O)OCC)C1c1ccc(OC(C)(C)C(=O)OCC)cc1
121 to 122	CCOC(=O)Nc1cccc(C(=O)C=CN(C)C)c1
97 to 98	COc1cc(Nc2nccc(-c3ccc(N(C)CCN(C)C)nc3)n2)cc(OC)c1OC
142 to 147	CCOC(=O)Cn1c(=O)c(=O)[nH]c2cc(C(F)(F)F)c(-n3ccc(C=NOCc4ccccc4)c3)cc21
65	CCCCC(=O)Nc1cccc([N+](=O)[O-])c1
172	CCN(CC)C(=O)c1ccc(Cl)c(C2(C)C(=O)N(Cc3ccc(OC)cc3OC)c3ccccc32)c1 (centres undefined)
218 to 221	CC1(C(=O)O)CCc2cc(O)c(C(C)(C)C)cc2O1 (centres undefined)
155 to 156	CC=NOCc1nc2c(N)nc3ccccc3c2n1CC(C)C
70	CCOC(=O)C(C(=O)OCC)C(=O)c1cc(OC)c(OC)c([N+](=O)[O-])c1

melting point [°C]	SMILES
155 to 157	COc1cc(CCc2cnc(N)nc2N)cc(OC)c1OC
94 to 96	CCOC(=O)C(Cc1ccc(NCc2ccc3cc(OS(C)(=O)=O)ccc3c2)cc1)OC (centres undefined)
140	CCOCCOC(=O)C1=C(C)NC(C)=C([N+](=O)[O-])C1c1cccc([N+](=O)[O-])c1 (centres undefined)
97 to 98.5	COc1ccccc1-c1cc(=O)c2ccccc2o1
82 to 84	CCC(CC)Oc1nc(C)nc(Cc2c(C)cc(C)cc2C)c1C
122 to 125	COC(=O)c1ccc(C(=O)c2ccc(CCl)cc2)cc1
65 to 67	CCCCc1c(C)cc(C)cc1O
178 to 180	CCOC(=O)c1cnc2nn(C)cc2c1NC
148	CCc1nnc(-c2ccc(OC)c(OC)c2)n1-c1ccc(OC)cc1
114 to 116	CCOC(=O)CN1C(=O)C(Br)CCc2ccccc21 (centres undefined)
190 to 193	COC(=O)C1=C(C)NC(C)=C(C(=O)OCCOC(=O)c2ccc(NC(C)=O)cc2)C1c1cccc([N+](=O)[O-])c1 (centres undefined)
226 to 227	CSc1cnc(OCCOc2ncnc(NS(=O)(=O)c3ccc(C(C)(C)C)cc3)c2-c2ccc(C(=O)O)cc2)nc1
123 to 124	CC(C)[C@H](NC(=O)OC(C)(C)C)C(=O)C1CC(=O)NC1=O (some centres undefined)
160 to 165	CON=C(C(=O)N[C@@H]1C(=O)N[C@@H]1C(=O)N(C)C)c1csc(NC(=O)CCl)n1 (relative stereo)
126 to 127	CCCc1c(C(O)C(C)C)c2ccc(C#N)cc2n1Cc1ccccc1Cl (centres undefined)
93 to 97	CCCCOc1cc2cc(CO)c(CO)c(-c3ccnc(Cl)c3)c2cc1OC
242 to 244	CCOC(=O)c1cc2c3n(ccc-2n1)CC(C(OCC)OCC)=N3
245 to 250	COC(=O)Nc1nc2cc(F)c(OC(C)c3c(Cl)ccc(F)c3Cl)cc2[nH]1 (centres undefined)
257 to 261	CNC(=O)c1cc2c(nc(C)n2C)c2c1CCC(OC)(c1ccccc1C)O2 (centres undefined)
81 to 84	COc1ccc(-c2cc(Cc3ccc(OC)c(OC4CCCC4)c3)cn2-c2ccc(S(N)(=O)=O)cc2)cc1
